In BindingDB's records for PubMed 39914143 (COMSATS University Islamabad):

Biological target: T1, Amine oxidase [flavin-containing] B (Homo sapiens, UniProt P27338)
T1 sequence (P27338 whole entry): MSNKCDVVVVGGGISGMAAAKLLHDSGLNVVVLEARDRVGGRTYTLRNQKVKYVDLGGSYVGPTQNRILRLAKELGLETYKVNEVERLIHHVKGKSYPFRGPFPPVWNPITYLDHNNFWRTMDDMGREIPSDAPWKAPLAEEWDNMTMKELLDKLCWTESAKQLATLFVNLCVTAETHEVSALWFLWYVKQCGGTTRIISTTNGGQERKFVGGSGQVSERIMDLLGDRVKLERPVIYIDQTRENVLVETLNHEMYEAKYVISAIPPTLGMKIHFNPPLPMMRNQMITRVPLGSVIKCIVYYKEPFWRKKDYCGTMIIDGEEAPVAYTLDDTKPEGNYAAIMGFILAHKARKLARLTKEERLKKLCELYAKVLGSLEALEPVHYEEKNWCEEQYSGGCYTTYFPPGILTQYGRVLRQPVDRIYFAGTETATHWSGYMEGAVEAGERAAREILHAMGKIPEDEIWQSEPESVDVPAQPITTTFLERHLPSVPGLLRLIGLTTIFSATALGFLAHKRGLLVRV
Assay: Inhibition of MAO-B (unknown origin)

CN(C)CCN1CCN(Cc2ccc(C(=O)Nc3nc4ccccc4s3)cc2)CC1
IC50: 40 nM
